Laboratory results published in ChEMBL document CHEMBL1156251, “Structure--activity relationships of polymyxin antibiotics” (J Med Chem, 2010).
In brackets after ≈: the same amount, converted by molar mass. Where a SMILES comes first, the peptide text is derived from it. Bridges are numbered along the chain shown (N, C = ends). [ ]: non-standard residue; d: D form. The star is where a group is joined. Heptanoyl(6-Me) = CC(C)CCCCC(=O)*; Nonanoyl = CCCCCCCCC(=O)*; Dab = NCC[C@H](N)C(=O)O

Key:
Pseudomonas aeruginosa = test: Antimicrobial activity against Pseudomonas aeruginosa; format: functional, organism-based
Escherichia coli = test: Antimicrobial activity against Escherichia coli; format: functional
Salmonella enterica = test: Antimicrobial activity against Salmonella enterica; format: functional
Lipopolysaccharide (LPS) = test: Displacement of dansyl-PMB from LPS by isothermal titration calorimetry

Compound	MIC (Pseudomonas aeruginosa) [µM]	MIC (Escherichia coli) [µM]	MIC (Salmonella enterica) [µM]	IC50 (Lipopolysaccharide (LPS))
CCCCCCCC(=O)N[C@@H](CCN)C(=O)N[C@H](C(=O)N[C@@H](CCN)C(=O)N[C@H]1CCNC(=O)[C@@H]([C@@H](C)O)NC(=O)[C@H](CCN)NC(=O)[C@H](CCN)NC(=O)[C@H](CC(C)C)NC(=O)[C@@H](Cc2ccccc2)NC(=O)[C@H](CCN)NC1=O)[C@@H](C)O [POLYMYXIN B3]	1 (≈ 1.19 µg/mL)	0.5 (≈ 0.595 µg/mL)	0.5 (≈ 0.595 µg/mL)	8 µM
CCCCCCCCC(=O)N[C@@H](CCN)C(=O)N[C@H](C(=O)N[C@@H](CCN)C(=O)N[C@H]1CCNC(=O)[C@H]([C@@H](C)O)NC(=O)[C@H](CCN)NC(=O)[C@H](CCN)NC(=O)[C@H](CC(C)C)NC(=O)[C@@H](Cc2ccccc2)NC(=O)[C@H](CCN)NC1=O)[C@@H](C)O [POLYMYXIN B5] (Nonanoyl-[Dab]T[Dab][Dab][Dab][dF]L[Dab][Dab]T; lactam 4-C)	1 (≈ 1.2 µg/mL)	1 (≈ 1.2 µg/mL)	1 (≈ 1.2 µg/mL)	6 µM
CCCCCCCC(=O)N[C@@H](CCN)C(=O)N[C@H](C(=O)N[C@@H](CCN)C(=O)N[C@H]1CCNC(=O)[C@H]([C@@H](C)O)NC(=O)[C@H](CCN)NC(=O)[C@H](CCN)NC(=O)CNC(=O)[C@@H](Cc2ccccc2)NC(=O)[C@H](CCN)NC1=O)[C@@H](C)O	2 (≈ 2.27 µg/mL)	1 (≈ 1.13 µg/mL)	2 (≈ 2.27 µg/mL)	11 µM
CCC(C)CCC(O)CC(=O)N[C@@H](CCN)C(=O)N[C@H](C(=O)N[C@@H](CCN)C(=O)N[C@H]1CCNC(=O)[C@H]([C@@H](C)O)NC(=O)[C@H](CCN)NC(=O)[C@H](CCN)NC(=O)[C@H](CC(C)C)NC(=O)[C@@H](Cc2ccccc2)NC(=O)[C@H](CCN)NC1=O)[C@@H](C)O (some centres undefined) [POLYMYXIN B6]	0.5 (≈ 0.61 µg/mL)	0.5 (≈ 0.61 µg/mL)	0.5 (≈ 0.61 µg/mL)	7 µM
CC(C)CCCCC(=O)N[C@@H](CCN)C(=O)N[C@H](C(=O)N[C@@H](CCN)C(=O)N[C@H]1CCNC(=O)[C@H]([C@@H](C)O)NC(=O)[C@H](CCN)NC(=O)[C@H](CCN)NC(=O)[C@H](CC(C)C)NC(=O)[C@@H](Cc2ccccc2)NC(=O)[C@H](CCN)NC1=O)[C@@H](C)O [POLYMYXIN B2] ({Heptanoyl(6-Me)}-[Dab]T[Dab][Dab][Dab][dF]L[Dab][Dab]T; lactam 4-C)	1 (≈ 1.19 µg/mL)	1 (≈ 1.19 µg/mL)	1 (≈ 1.19 µg/mL)	9 µM
CC(C)C[C@@H]1NC(=O)[C@@H](Cc2ccccc2)NC(=O)[C@H](CCN)NC(=O)[C@@H](NC(=O)[C@H](CCN)NC(=O)[C@@H](NC(=O)[C@H](CCCNC(=N)N)NC(=O)O)[C@@H](C)O)CCNC(=O)[C@H]([C@@H](C)O)NC(=O)[C@H](CCN)NC(=O)[C@H](CCN)NC1=O [DESFA-[ARG1]POLYMYXIN B]	16 (≈ 18.6 µg/mL)	8 (≈ 9.31 µg/mL)	16 (≈ 18.6 µg/mL)	15 µM
CCCCCCCC(=O)N[C@@H](CCN)C(=O)N[C@H](C(=O)N[C@@H](CCN)C(=O)N[C@H]1CCNC(=O)[C@H]([C@@H](C)O)NC(=O)[C@H](CCN)NC(=O)[C@H](CCN)NC(=O)[C@H](CC(C)C)NC(=O)[C@H](Cc2ccccc2)NC(=O)[C@H](CCN)NC1=O)[C@@H](C)O	2 (≈ 2.38 µg/mL)	2 (≈ 2.38 µg/mL)	2 (≈ 2.38 µg/mL)	10 µM
CCCCCCCC(=O)N[C@@H](CCN)C(=O)N[C@H](C(=O)N[C@@H](CCN)C(=O)N[C@H]1CCNC(=O)[C@H]([C@@H](C)O)NC(=O)[C@H](CCN)NC(=O)[C@H](CCN)NC(=O)[C@H](C)NC(=O)[C@@H](C)NC(=O)[C@H](CCN)NC1=O)[C@@H](C)O	4 (≈ 4.29 µg/mL)	2 (≈ 2.14 µg/mL)	32 (≈ 34.3 µg/mL)	8 µM
CC(C)C[C@@H]1NC(=O)[C@@H](Cc2ccccc2)NC(=O)[C@H](CCN)NC(=O)[C@@H](NC(=O)[C@H](CCN)NC(=O)[C@@H](NC(=O)[C@H](CCCCN)NC(=O)O)[C@@H](C)O)CCNC(=O)[C@H]([C@@H](C)O)NC(=O)[C@H](CCN)NC(=O)[C@H](CCN)NC1=O [DESFA-[LYS1]POLYMYXIN B]	32 (≈ 36.3 µg/mL)	16 (≈ 18.2 µg/mL)	32 (≈ 36.3 µg/mL)	22 µM
CC(C)C[C@@H]1NC(=O)[C@@H](Cc2ccccc2)NC(=O)[C@H](CCN)NC(=O)[C@@H](NC(=O)[C@H](CCN)NC(=O)[C@@H](NC(=O)[C@H](CCN)NC(=O)[C@@H](CCN)NC(=O)[C@@H](N)CCN)[C@@H](C)O)CCNC(=O)[C@H]([C@@H](C)O)NC(=O)[C@H](CCN)NC(=O)[C@H](CCN)NC1=O [DESFA-[DAB-DAB-DAB1]POLYMYXIN B]	0.5 (≈ 0.632 µg/mL)	8 (≈ 10.1 µg/mL)	32 (≈ 40.4 µg/mL)	3 µM
CC(C)C[C@@H]1NC(=O)[C@@H](Cc2ccccc2)NC(=O)[C@H](CCN)NC(=O)[C@@H](NC(=O)[C@H](CCN)NC(=O)[C@@H](NC(=O)[C@H](CCC(=O)O)NC(=O)O)[C@@H](C)O)CCNC(=O)[C@H]([C@@H](C)O)NC(=O)[C@H](CCN)NC(=O)[C@H](CCN)NC1=O [DESFA-[GLU1]POLYMYXIN B]	256 (≈ 291 µg/mL)	≥ 256	> 256	>= 32 nmol/ml
